Source: PubChem BioAssay (NCI)
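96-well plates; 48 h exposure; 5 concentrations. Endpoints by linear interpolation between flanking doses. Not reached: highest tested concentration assigned. GI50 marks 50% less growth. TGI denotes the concentration required for complete inhibition of growth.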

Key:
Test in all cases: DTP human tumour cell line panel, 48 h
[1] = system: NCI-H226 lung
[2] = system: UACC-257 melanoma
[3] = system: DU-145 prostate
[4] = system: BT-549 breast
[5] = system: KM12 colon
[6] = system: T-47D breast
[7] = system: HOP-92 NSCLC
[8] = system: U251 CNS
[9] = system: HS 578T breast
[10] = system: ACHN renal
[11] = system: HT29 colon
[12] = system: NCI-H23 lung
[13] = system: SF-295 CNS
[14] = system: SNB-19 CNS
[15] = system: OVCAR-5 ovarian
[16] = system: RXF 393 renal
[17] = system: MALME-3M melanoma
[18] = system: RPMI-8226 leukemia
[19] = system: SNB-75 CNS
[20] = system: HCT-15 colon
[21] = system: IGROV1 ovarian
[22] = system: LOX IMVI melanoma
[23] = system: MDA-MB-435
[24] = system: A498 renal
[25] = system: SF-268 CNS
[26] = system: SK-MEL-28 melanoma
[27] = system: TK-10 renal
[28] = system: CAKI-1 renal
[29] = system: COLO 205 colon
[30] = system: PC-3 prostate
[31] = system: HCC-2998 colon
[32] = system: SF-539 CNS
[33] = system: A549 NSCLC
[34] = system: SK-OV-3 ovarian
[35] = system: NCI-H460 lung
[36] = system: UACC-62 melanoma
[37] = system: OVCAR-3 ovarian
[38] = system: HOP-62 NSCLC
[39] = system: 786-0 renal
[40] = system: SW-620 colon
[41] = system: M14 melanoma
[42] = system: SK-MEL-2 melanoma
[43] = system: NCI/ADR-RES ovarian
[44] = system: MCF7 breast
[45] = system: CCRF-CEM leukemia
[46] = system: HCT-116 colon
[47] = system: OVCAR-8 ovarian
[48] = system: EKVX NSCLC
[49] = system: SK-MEL-5 melanoma
[50] = system: SN12C renal
[51] = system: OVCAR-4 ovarian
[52] = system: UO-31 renal
[53] = system: MDA-MB-231 breast
[54] = system: NCI-H522 lung
[55] = system: K-562 leukemia
[56] = system: SR leukemia
[57] = system: MOLT-4 leukemia
[58] = system: HL-60(TB) leukemia

SMILES: Oc1c(I)cc(I)cc1CNCCN(Cc1ccccn1)Cc1ccccn1
- GI50 [1]: 1.07 µM
- TGI [1]: 2.75 µM
- GI50 [2]: 1.89 µM
- TGI [2]: 4.25 µM
- GI50 [3]: 1.07 µM
- TGI [3]: 2.27 µM
- GI50 [4]: 1.24 µM
- TGI [4]: 2.52 µM
- GI50 [5]: 1.2 µM
- TGI [5]: 2.67 µM
- GI50 [6]: 1.46 µM
- TGI [6]: 2.83 µM
- GI50 [7]: 1.54 µM
- TGI [7]: 3.07 µM
- GI50 [8]: 0.827 µM
- TGI [8]: 2.89 µM
- GI50 [9]: 2.12 µM
- TGI [9]: 7.43 µM
- GI50 [10]: 1.13 µM
- TGI [10]: 2.34 µM
- GI50 [11]: 2.3 µM
- TGI [11]: 5.96 µM
- GI50 [12]: 1.76 µM
- TGI [12]: 4.66 µM
- GI50 [13]: 1.23 µM
- TGI [13]: 2.63 µM
- GI50 [14]: 0.693 µM
- TGI [14]: 2.11 µM
- GI50 [15]: 1.42 µM
- TGI [15]: 4.18 µM
- GI50 [16]: 1.5 µM
- TGI [16]: 2.99 µM
- GI50 [17]: 1.53 µM
- TGI [17]: 3.33 µM
- GI50 [18]: 1.66 µM
- TGI [18]: 7.64 µM
- GI50 [19]: 0.544 µM
- TGI [19]: 2.06 µM
- GI50 [20]: 1.18 µM
- TGI [20]: 4.17 µM
- GI50 [21]: 0.83 µM
- TGI [21]: 2.98 µM
- GI50 [22]: 1.14 µM
- TGI [22]: 2.45 µM
- GI50 [23]: 1.55 µM
- TGI [23]: 3.15 µM
- GI50 [24]: 1.67 µM
- TGI [24]: 3.04 µM
- GI50 [25]: 1.01 µM
- TGI [25]: 2.4 µM
- GI50 [26]: 1.41 µM
- TGI [26]: 3.64 µM
- GI50 [27]: 1.26 µM
- TGI [27]: 2.54 µM
- GI50 [28]: 1.32 µM
- TGI [28]: 2.68 µM
- GI50 [29]: 1.49 µM
- TGI [29]: 3.68 µM
- GI50 [30]: 1.16 µM
- TGI [30]: 2.92 µM
- GI50 [31]: 1.47 µM
- TGI [31]: 2.95 µM
- GI50 [32]: 1.14 µM
- TGI [32]: 2.42 µM
- GI50 [33]: 1.24 µM
- TGI [33]: 2.91 µM
- GI50 [34]: 1.21 µM
- TGI [34]: 2.58 µM
- GI50 [35]: 0.804 µM
- TGI [35]: 2.48 µM
- GI50 [36]: 1.49 µM
- TGI [36]: 4.21 µM
- GI50 [37]: 1.32 µM
- TGI [37]: 2.73 µM
- GI50 [38]: 0.859 µM
- TGI [38]: 2.67 µM
- GI50 [39]: 1.44 µM
- TGI [39]: 2.75 µM
- GI50 [40]: 1.65 µM
- TGI [40]: 3.47 µM
- GI50 [41]: 1.45 µM
- TGI [41]: 3 µM
- GI50 [42]: 1.74 µM
- TGI [42]: 3.8 µM
- GI50 [43]: 1.8 µM
- TGI [43]: 4.79 µM
- GI50 [44]: 1.21 µM
- TGI [44]: 3.19 µM
- GI50 [45]: 1.87 µM
- TGI [45]: 21.1 µM
- GI50 [46]: 1.28 µM
- TGI [46]: 2.61 µM
- GI50 [47]: 2.14 µM
- TGI [47]: 8.16 µM
- GI50 [48]: 0.911 µM
- TGI [48]: 2.11 µM
- GI50 [49]: 1.15 µM
- TGI [49]: 2.45 µM
- GI50 [50]: 0.667 µM
- TGI [50]: 2.37 µM
- GI50 [51]: 0.896 µM
- TGI [51]: 2.23 µM
- GI50 [52]: 0.779 µM
- TGI [52]: 2.07 µM
- GI50 [53]: 1.15 µM
- TGI [53]: 3.16 µM
- GI50 [54]: 1.37 µM
- TGI [54]: 3.34 µM

SMILES: O=C1C(NCCF)=C(Cl)C(=O)c2ncccc21
- TGI [1]: 3.66 µM
- TGI [2]: 3.23 µM
- TGI [3]: 2.33 µM
- TGI [4]: 2.86 µM
- TGI [5]: 2.93 µM
- TGI [6]: 5.04 µM
- TGI [7]: 3.67 µM
- TGI [8]: 2 µM
- TGI [9]: 4.01 µM
- TGI [10]: 3.62 µM
- TGI [11]: 6.15 µM
- TGI [12]: 2.8 µM
- TGI [13]: 3.02 µM
- TGI [14]: 2.68 µM
- TGI [15]: 3.46 µM
- TGI [16]: 2.01 µM
- TGI [17]: 1.2 µM
- TGI [55]: 0.575 µM
- TGI [18]: 1.78 µM
- TGI [56]: 5.35 µM
- TGI [19]: 1.93 µM
- TGI [57]: 3.27 µM
- TGI [20]: 2.08 µM
- TGI [21]: 3.28 µM
- TGI [22]: 1.61 µM
- TGI [23]: 0.353 µM
- TGI [24]: 3.17 µM
- TGI [25]: 4.17 µM
- TGI [26]: 2 µM
- TGI [27]: 3.23 µM
- TGI [30]: 3.45 µM
- TGI [31]: 2.5 µM
- TGI [32]: 2.34 µM
- TGI [33]: 3.79 µM
- TGI [34]: 3.28 µM
- TGI [35]: 1.68 µM
- TGI [36]: 1.25 µM
- TGI [38]: 3.47 µM
- TGI [39]: 2.51 µM
- TGI [40]: 2.15 µM
- TGI [41]: 2.28 µM
- TGI [42]: 0.794 µM
- TGI [44]: 2.28 µM
- TGI [45]: 0.695 µM
- TGI [46]: 2.4 µM
- TGI [58]: 0.854 µM
- TGI [47]: 3.27 µM
- TGI [48]: 3.47 µM
- TGI [49]: 0.343 µM
- TGI [50]: 2.2 µM
- TGI [53]: 5.19 µM
